Laboratory results taken from ChEMBL document CHEMBL1909574, “Acid mediated formation of an N-acyliminium ion from tubulysins: a new methodology for the synthesis of natural tubulysins and their analogs” (Bioorg Med Chem Lett, 2011).

Tested on: KB
Assay: Growth inhibition of human KB cells by [3H]thymidine incorporation assay
Type: functional, cell-based

SMILES | IC50 (Homo sapiens, KB) [nM] | IC50 (kb) [nM]
CCCCSCN(C(=O)[C@@H](NC(=O)[C@H]1CCCCN1C)[C@@H](C)CC)[C@H](C[C@@H](OC(C)=O)c1nc(C(=O)N[C@@H](Cc2ccc(O)cc2)C[C@H](C)C(=O)O)cs1)C(C)C | 0.7 | –
CCCCCSCN(C(=O)[C@@H](NC(=O)[C@H]1CCCCN1C)[C@@H](C)CC)[C@H](C[C@@H](OC(C)=O)c1nc(C(=O)N[C@@H](Cc2ccc(O)cc2)C[C@H](C)C(=O)O)cs1)C(C)C | 0.8 | –
CC[C@H](C)[C@H](NC(=O)[C@H]1CCCCN1C)C(=O)N(CSCCO)[C@H](C[C@@H](OC(C)=O)c1nc(C(=O)N[C@@H](Cc2ccc(O)cc2)C[C@H](C)C(=O)O)cs1)C(C)C | 26 | –
CC[C@H](C)[C@H](NC(=O)[C@H]1CCCCN1C)C(=O)N(COC)[C@H](C[C@@H](OC(C)=O)c1nc(C(=O)N[C@@H](Cc2ccc(O)cc2)C[C@H](C)C(=O)O)cs1)C(C)C | 9 | –
CCCOCN(C(=O)[C@@H](NC(=O)[C@H]1CCCCN1C)[C@@H](C)CC)[C@H](C[C@@H](OC(C)=O)c1nc(C(=O)N[C@@H](Cc2ccc(O)cc2)C[C@H](C)C(=O)O)cs1)C(C)C | 1.4 | –
CC[C@H](C)[C@H](NC(=O)[C@H]1CCCCN1C)C(=O)N(COCCC(C)C)[C@H](C[C@@H](OC(C)=O)c1nc(C(=O)N[C@@H](Cc2ccc(O)cc2)C[C@H](C)C(=O)O)cs1)C(C)C | 12 | –
CC[C@H](C)[C@H](NC(=O)[C@H]1CCCCN1C)C(=O)N(COCCO)[C@H](C[C@@H](OC(C)=O)c1nc(C(=O)N[C@@H](Cc2ccc(O)cc2)C[C@H](C)C(=O)O)cs1)C(C)C | 18 | –
CCSCN(C(=O)[C@@H](NC(=O)[C@H]1CCCCN1C)[C@@H](C)CC)[C@H](C[C@@H](OC(C)=O)c1nc(C(=O)N[C@@H](Cc2ccc(O)cc2)C[C@H](C)C(=O)O)cs1)C(C)C | 2 | –
CCCSCN(C(=O)[C@@H](NC(=O)[C@H]1CCCCN1C)[C@@H](C)CC)[C@H](C[C@@H](OC(C)=O)c1nc(C(=O)N[C@@H](Cc2ccc(O)cc2)C[C@H](C)C(=O)O)cs1)C(C)C | 1.4 | –
CC[C@H](C)[C@H](NC(=O)[C@H]1CCCCN1C)C(=O)N(CSCCS)[C@H](C[C@@H](OC(C)=O)c1nc(C(=O)N[C@@H](Cc2ccc(O)cc2)C[C@H](C)C(=O)O)cs1)C(C)C | 26 | –
CC[C@H](C)[C@H](NC(=O)[C@H]1CCCCN1C)C(=O)N(CNC(=O)CC(C)C)[C@H](C[C@@H](OC(C)=O)c1nc(C(=O)N[C@@H](Cc2ccc(O)cc2)C[C@H](C)C(=O)O)cs1)C(C)C | 8 | –
C=CCCN(C(=O)[C@@H](NC(=O)[C@H]1CCCCN1C)[C@@H](C)CC)[C@H](C[C@@H](OC(C)=O)c1nc(C(=O)N[C@@H](Cc2ccc(O)cc2)C[C@H](C)C(=O)O)cs1)C(C)C | 1.3 | –
CC[C@@H](C)[C@H](NC(=O)[C@H]1CCCCN1C)C(=O)N(COC(=O)CC(C)C)[C@H](C[C@@H](OC(C)=O)c1nc(C(=O)N[C@@H](Cc2ccc(O)cc2)C[C@H](C)C(=O)O)cs1)C(C)C [TUBULYSIN A] | – | 1
CCCC(=O)OCN(C(=O)[C@@H](NC(=O)[C@H]1CCCCN1C)[C@@H](C)CC)[C@H](C[C@@H](OC(C)=O)c1nc(C(=O)N[C@@H](Cc2ccc(O)cc2)C[C@H](C)C(=O)O)cs1)C(C)C [TUBULYSIN B] | 2 | –
